In brackets after ≈: the same amount, converted by molar mass.
Legend:
C3b = target: T1, C3b (Homo sapiens, UniProt P01024); test: SPR kinetic analysis of binding to immobilized C3b (Biacore, single cycle kinetics)
T1 construct: Biotinylated C3b was captured site-specifically on a streptavidin chip
Protocol: SPR analysis. The interaction of the compstatin analogs with C3b was characterized using a Biacore 3000 instrument (GE Healthcare, Corp., Piscataway, N.J.). The running buffer was PBS, pH 7.4 (10 mM sodium phosphate, 150 mM NaCl) with 0.005% Tween-20. Biotinylated C3b was captured site-specifically on a streptavidin chip at about 3000 and 5000 RU density; two untreated flow cells were used as reference surface. For kinetic analysis, sets of five increasing concentrations of a particular compound were injected over the chip surface one after the other in a single cycle. […] Processed biosensor data were globally fitted to a 1:1 Langmuir binding model (kindly provided by GE Helthcare), and the equilibrium dissociation constant (KD) was calculated from the equation KD=kd/ka. Each assay was performed at least twice.

in vivo [1] = test: in vivo; design: species or system baboons (P. Anubis); conditions: baboon (P. Anubis), iv, 10 mg
Protocol: Juvenile baboons (P. Anubis, Baboon Research Resources, University of Oklahoma) weighing 5-8 kg were used. Two baboons were used for the study, one for each compound. Each animal received a bolus dose of peptide (10 mg) by injection through the peripheral vein. Blood samples for the LC-MS/MS assay were collected in 1-ml plastic tubes containing […] lepirudin, and centrifuged at 2000 g for 20 min at 4° C. for plasma separation. Plasma samples were stored at −70° C. Blood samples were collected at pre-determined time intervals after injection of Cp30 (SEQ ID NO:7) or the Cp30 (SEQ ID NO:7)-ABM2 conjugate. Samples were treated with SPE and analyzed using LC-MS/MS. Calibration curves were created using standard peptides at various concentrations in plasma to determine peptide concentration in each sample.
Extraction of compstatin analogs from plasma samples by SPE. […] Samples were diluted with 4% H3PO4. After loading a sample, washing was carried out with 500 μL of water and 10% ACN with 0.1% formic acid. […] Samples for LC-MS were diluted 1:2 to 1:11 in milli-Q water with 10% ACN with 0.1% formic acid.
LC-MS/MS analysis. […] Each sample was injected in triplicate. […] The analytical column temperature was held at 40° C. Peptides were separated at flow rate 0.15 mL/min. The gradient was linear 15-55% B (0.1% formic acid in acetonitrile) over 7 min.

C3 = target: T2, C3 (Homo sapiens, UniProt P01024); test: Plasma protein binding in human plasma (PEG precipitation, Mono Q FPLC, UPLC-MS); type: in vitro ADME; conditions: 20 μM peptide, Mono Q fractions
T2 construct: from tissue; host or cells: fresh human plasma (lepirudin-anticoagulated)
T2 sequence (P01024 23-1663): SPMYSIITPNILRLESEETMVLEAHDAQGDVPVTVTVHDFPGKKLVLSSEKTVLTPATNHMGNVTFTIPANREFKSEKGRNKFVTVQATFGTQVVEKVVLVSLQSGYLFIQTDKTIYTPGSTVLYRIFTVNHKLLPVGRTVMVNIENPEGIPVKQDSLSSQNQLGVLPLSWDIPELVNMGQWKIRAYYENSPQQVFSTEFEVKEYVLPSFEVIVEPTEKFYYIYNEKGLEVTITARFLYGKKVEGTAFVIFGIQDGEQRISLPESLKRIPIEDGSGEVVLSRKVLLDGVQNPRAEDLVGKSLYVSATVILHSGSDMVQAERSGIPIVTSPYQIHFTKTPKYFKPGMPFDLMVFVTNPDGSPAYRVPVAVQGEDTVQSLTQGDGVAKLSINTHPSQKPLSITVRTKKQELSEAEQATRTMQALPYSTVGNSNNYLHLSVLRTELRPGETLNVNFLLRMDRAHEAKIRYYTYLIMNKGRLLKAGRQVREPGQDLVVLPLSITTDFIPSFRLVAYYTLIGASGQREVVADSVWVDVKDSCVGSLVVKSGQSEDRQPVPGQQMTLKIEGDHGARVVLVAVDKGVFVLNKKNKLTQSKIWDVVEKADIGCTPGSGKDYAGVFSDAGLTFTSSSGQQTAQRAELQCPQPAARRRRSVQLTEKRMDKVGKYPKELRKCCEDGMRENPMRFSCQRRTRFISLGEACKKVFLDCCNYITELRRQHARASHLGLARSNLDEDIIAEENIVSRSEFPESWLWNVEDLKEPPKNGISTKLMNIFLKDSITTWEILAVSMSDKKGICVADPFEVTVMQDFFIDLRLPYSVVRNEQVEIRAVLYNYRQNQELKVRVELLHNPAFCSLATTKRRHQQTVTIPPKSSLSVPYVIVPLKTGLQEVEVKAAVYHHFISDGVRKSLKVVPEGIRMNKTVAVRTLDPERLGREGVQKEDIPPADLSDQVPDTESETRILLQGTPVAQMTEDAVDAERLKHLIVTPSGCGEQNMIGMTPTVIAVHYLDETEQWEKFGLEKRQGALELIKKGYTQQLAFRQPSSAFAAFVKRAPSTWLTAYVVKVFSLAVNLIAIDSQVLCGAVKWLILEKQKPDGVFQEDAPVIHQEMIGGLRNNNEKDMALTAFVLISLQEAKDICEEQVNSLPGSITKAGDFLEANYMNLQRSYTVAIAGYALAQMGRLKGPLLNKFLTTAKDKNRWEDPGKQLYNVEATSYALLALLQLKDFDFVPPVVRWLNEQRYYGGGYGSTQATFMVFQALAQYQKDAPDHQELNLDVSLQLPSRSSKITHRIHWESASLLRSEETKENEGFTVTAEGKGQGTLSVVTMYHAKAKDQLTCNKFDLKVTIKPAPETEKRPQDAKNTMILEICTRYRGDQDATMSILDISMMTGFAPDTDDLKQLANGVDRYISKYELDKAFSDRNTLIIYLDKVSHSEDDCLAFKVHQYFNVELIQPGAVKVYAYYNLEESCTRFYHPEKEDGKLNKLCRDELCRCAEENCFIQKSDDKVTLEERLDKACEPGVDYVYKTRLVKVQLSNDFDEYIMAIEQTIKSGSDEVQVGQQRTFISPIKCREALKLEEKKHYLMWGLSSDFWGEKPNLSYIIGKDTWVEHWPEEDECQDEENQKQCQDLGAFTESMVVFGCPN
Protocol: Plasma protein binding. Cp30 (SEQ ID NO:7) was spiked in 500 μL of fresh human plasma containing lepirudin (3.75 units/nil) so that the final peptide concentration was 20 μM (C3: 1.2 mg/mL, 6.4 μm). A control sample was prepared in the same way using Cp30 (SEQ ID NO:7) and milli-Q water to determine the area of peptide in UPLC-MS at 1 μM. The plasma sample was equilibrated at room temperature for 10 min. Then, 500 μL of 30% PEG in milli-Q water (MW3350) was slowly added to the plasma sample while mixing. The mixture was centrifuged at 14000 rpm for 10 min to separate the supernatant. The pellet was dissolved in 1000 μL of FPLC buffer A and separated by FPLC using Mono Q 5/5 column and fractions was collected at 1 mL per tube. 0.5 mL of each fraction was mixed with same volume off 4% H3PO4 for SPE and UPLC-MS analysis.
UPLC-MS analysis. […] Each sample was injected in quadruplicates. […] The analytical column temperature was held at 40° C.

[2] = Plasma levels and half-life after i.v. injection in cynomolgus monkeys; conditions: 2 mg/kg i.v., terminal log-linear portion (1-24 h)
Protocol: (§4) Primate studies and sample collection. Evaluation of plasma half-life and generation of major metabolites was performed at the Simian Conservation Breeding and Research Center (SICONBREC, Makati City, Philippines) in cynomolgus monkeys (Macaca fascicularis). […] Blood samples (1-2 mL) were collected immediately before and at various time points after compound injection (2, 5 and 30 min; 1, 2, 4, 6, and 24 hours) in EDTA-coated Vacutainer tubes to prevent coagulation and complement activation, and centrifuged at ˜800×g for 10 min to obtain plasma. Plasma samples were immediately frozen and stored for further analysis. All NHP studies were performed in accordance with animal welfare laws and regulations.
(§5) Analysis of plasma samples. Prior to analysis by UPLC-MS, compstatin analogs in the plasma samples were extracted by solid phase extraction (SPE) in a 96-well plate format (HLB Oasis 30 μm, 10 mg; Waters, Milford, Mass.). […] Eluted peptides were directly analyzed by HDMS; the ESI source capillary voltage was set to 3.2 kV, the cone voltage to 30 V and the source temperature to 120° C. […]
(§6) Determination of plasma half-life. […] All calibration samples were subjected to SPE and measured using UPLC-HDMS as described above. […] For the pharmacokinetic analysis, the plasma concentration (Cp) at each time point was calculated from the extracted peak area of each peptide using the corresponding standard curve.

[3] = Stability in human plasma at 37° C. (SPE, UPLC-MS); conditions: fresh human plasma
Protocol: (§7) Plasma stability. Fresh human plasma containing lepirudin (3.75 units/ml) was incubated at 37° C. with Cp30 (SEQ ID NO:7), Cp40 (SEQ ID NO:18) or control peptide 2B at a final concentration of 20 μM each. Samples of 100 μL were taken for solid phase extraction. A 96-well plate HLB Oasis 30 μm 10 mg (Waters, Milford, Mass.) was employed for extraction. The SPE material was conditioned by addition of 500 μL each of methanol and ACN followed by addition of 500 μL of milli-Q water. Sample was diluted 1:1 with 4% H3PO4. After loading the sample, washing was carried out twice with 500 μL of 10% ACN in 0.1% formic acid. Sample was eluted with 200 μL of 65% ACN in 0.1% formic acid and collected in the Eppendorf LoBind collection plate. Sample for UPLC-MS was diluted 1:10 in milli-Q water with 0.1% formic acid. Cp20 (SEQ ID NO:3) was spiked in each sample before SPE as an internal standard.
(§8) UPLC-MS analysis. UPLC-MS analysis was performed on a SYNAPT HDMS (Waters, Milford, Mass.) equipped with an ESI source controlled by MassLynx 4.1 software (Waters). Each sample was injected in quadruplicates. An online ACQUITY UPLC (Waters) system was used for peptide separation by reversed-phase liquid chromatography. The capillary voltage was 3.2 kV, the cone voltage was 30 V and the source temperature was 120° C. [Glu1]-fibrinogen peptide was used for lock-mass correction with a sampling rate of 30 s. […]

[4] = tested on: classical pathway of complement; test: ELISA inhibition of classical pathway complement activation; type: biochemical; conditions: read-out: IC50, peptide concentration to reach 50% inhibition of classical pathway complement activation; Table 1
Protocol: Inhibition of complement activation. The ability of the compstatin analogs to inhibit the activation of the classical pathway of complement was assessed by ELISA as described elsewhere (Katragadda et al., 2006, supra; Mallik et al., 2005, supra). The percent inhibition was plotted against the peptide concentration, and the resulting data set was fitted to the logistic dose-response function using Origin 8.0 software. IC50 values were obtained from the fitted parameters that produced the lowest χ2 value. Each analog was assayed at least three times.

[5] = Solubility in WFI and DPBS; UPLC C18 retention time as hydrophobicity; conditions: for Hydrophobicity Retention Time: UPLC analysis on a C18 column
Protocol: (§9) Approximately 5 mg of each peptide (acetate form) was weighed out into separate LoBind Eppendorf tubes and 50 μL water for injection (WFI) was added to each tube. Each sample was centrifuged at 13000 rpm for 2 min and diluted for measuring the optical density (OD) at 280 nm using a NanoDrop 2000 spectrophotometer (ThermoScientific, Wilmington, Del.). Each concentrated sample was diluted 1:20 into Dulbecco's phosphate buffered saline (DPBS, without potassium and calcium; Invitrogen, Carlsbad, Calif.). The samples were monitored for precipitation, and each sample was vortexed for 5 min and centrifuged at 13000 rpm for 2 min. The OD of each DPBS supernatant was measured to determine peptide concentration at saturation.
(§10) In addition, the ultra performance liquid chromatography (UPLC) retention time of these peptides on a C18 column was measured to reflect their apparent relative hydrophobicity (Table 3).

in vivo [6] = conditions: cynomolgus monkey, iv, 2 mg/kg
Protocol: as §4, §5, §6

[7] = tested on: complement activation via the alternative pathway; test: Erythrocyte hemolytic assay on plasma samples of treated cynomolgus monkeys; type: in vivo, cynomolgus monkeys (Macaca fascicularis); conditions: subcutaneous injection 2 mg/kg
Protocol: (§1) Hemolytic assay. Rabbit erythrocytes were washed with phosphate-buffered saline (PBS) followed by washing with Veronal-buffered saline (VBS)^Mg+/EGTA. A 1:20 dilution was prepared in VBS buffer. Plasma samples (1:10 in VBS−100 μl) was incubated with the rabbit erythrocytes solution (50 μl) in a 96-well plate at 37° C. for 1 h. EDTA (0.2 mM-15μl) was added to stop the reaction and plate was centrifuged (2500×g 3 min). Supernatant (100μl) was transferred to a new well and optical density was measured at 405 nm. Incubation of erythrocytes with water or buffer was used as positive (100% lysis) and negative (0% lysis) control, respectively.
(§2) Analyses. Analysis of plasma samples, determination of plasma half-life and complement inhibitory activity in plasma were performed as described in Example 5.

in vitro = conditions: human, plasma
Protocol: as §7, §8

in vivo [8] = test: in vivo; design: species or system cynomolgus monkeys (Macaca fascicularis); conditions: cynomolgus monkey
Protocol: Primate studies and sample collection. […] Two healthy animals were used for each route of administration. The animals were sedated and injected subcutaneously with 2 mg/kg of the compound or orally by intragastric gavage with 4 mg/kg of the compound.
as §2

[9] = tested on: complement activation via the alternative pathway; test: Erythrocyte hemolytic assay on plasma samples of treated baboon; type: in vivo; conditions: intramuscular injection 2 mg/kg
Protocol: as §1
(§3) Extraction of compstatin analog from plasma samples and LC-MS/MS analysis were performed as described in Example 7. A hemolytic assay was performed as described in Example 5.

[10] = 5 min, pH 7.4
Protocol: as §9, §10

in vivo [11] = test: in vivo; design: species or system baboon; conditions: 2 mg/kg
Protocol: A juvenile baboon was injected intramuscularly with 2 mg/kg Cp40 (SEQ ID NO:18) Blood samples for the LC-MS/MS assay were collected in 1-ml plastic tubes containing 50 μg lepirudin, and centrifuged at 2000 g for 20 min at 4° C. for plasma separation. Plasma samples were stored at −70° C. Blood samples were collected at pre-determined time intervals after injection of the analog. Samples were treated with SPE and analyzed using LC-MS/MS. Calibration curves were created using standard peptides at various concentrations in plasma to determine peptide concentration in each sample.
as §3

T1 sequence (P01024 23-667 limits assumed): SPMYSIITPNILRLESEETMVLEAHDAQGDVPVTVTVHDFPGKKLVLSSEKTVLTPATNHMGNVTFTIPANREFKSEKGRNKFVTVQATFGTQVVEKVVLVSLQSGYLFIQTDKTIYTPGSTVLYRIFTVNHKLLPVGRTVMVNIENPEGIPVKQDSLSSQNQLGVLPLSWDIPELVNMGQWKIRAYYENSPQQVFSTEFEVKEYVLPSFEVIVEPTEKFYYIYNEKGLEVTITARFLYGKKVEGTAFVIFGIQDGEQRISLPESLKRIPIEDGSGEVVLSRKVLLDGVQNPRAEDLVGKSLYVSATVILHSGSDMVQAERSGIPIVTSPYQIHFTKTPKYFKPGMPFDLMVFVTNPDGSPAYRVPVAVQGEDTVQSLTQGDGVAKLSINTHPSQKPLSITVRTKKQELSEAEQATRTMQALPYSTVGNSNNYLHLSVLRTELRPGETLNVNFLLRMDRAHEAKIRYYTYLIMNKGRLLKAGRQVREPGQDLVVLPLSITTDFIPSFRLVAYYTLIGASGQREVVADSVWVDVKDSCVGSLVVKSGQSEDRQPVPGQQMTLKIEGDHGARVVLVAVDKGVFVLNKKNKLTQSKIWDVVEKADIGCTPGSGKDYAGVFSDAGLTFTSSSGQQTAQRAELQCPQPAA
T1 sequence (P01024 749-1663 partner limits assumed): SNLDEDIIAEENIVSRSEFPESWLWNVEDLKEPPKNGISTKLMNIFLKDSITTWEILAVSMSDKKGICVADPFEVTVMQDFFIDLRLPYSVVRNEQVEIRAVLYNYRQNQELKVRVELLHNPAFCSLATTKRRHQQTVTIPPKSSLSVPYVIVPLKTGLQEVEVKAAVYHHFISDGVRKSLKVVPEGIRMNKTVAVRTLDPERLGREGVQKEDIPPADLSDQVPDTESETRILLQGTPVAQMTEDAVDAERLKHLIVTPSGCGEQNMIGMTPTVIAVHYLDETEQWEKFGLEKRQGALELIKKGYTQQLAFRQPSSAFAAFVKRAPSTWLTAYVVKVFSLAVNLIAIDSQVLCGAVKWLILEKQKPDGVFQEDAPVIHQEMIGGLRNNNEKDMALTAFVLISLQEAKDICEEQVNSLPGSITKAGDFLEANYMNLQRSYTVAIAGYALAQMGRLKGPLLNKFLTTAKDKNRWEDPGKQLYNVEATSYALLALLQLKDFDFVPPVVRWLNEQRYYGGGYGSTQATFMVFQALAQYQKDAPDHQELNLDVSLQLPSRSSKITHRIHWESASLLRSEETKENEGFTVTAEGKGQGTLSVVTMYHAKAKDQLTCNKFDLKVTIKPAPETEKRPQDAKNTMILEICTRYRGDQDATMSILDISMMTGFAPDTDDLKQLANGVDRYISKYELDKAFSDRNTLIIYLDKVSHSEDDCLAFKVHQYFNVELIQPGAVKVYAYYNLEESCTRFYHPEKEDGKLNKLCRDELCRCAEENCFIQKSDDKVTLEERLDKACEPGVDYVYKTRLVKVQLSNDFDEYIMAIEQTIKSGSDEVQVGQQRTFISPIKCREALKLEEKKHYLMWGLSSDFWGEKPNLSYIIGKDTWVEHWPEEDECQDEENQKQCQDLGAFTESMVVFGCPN
Protocol for physchem: as §9, §10

In the case of CC[C@H](C)[C@H](NC(=O)CNC)C(=O)N[C@H]1CSSC[C@@H](C(=O)N(C)[C@H](C(N)=O)[C@@H](C)CC)NC(=O)[C@H](CCCNC(=N)N)NC(=O)[C@H](Cc2c[nH]cn2)NC(=O)[C@H](C)NC(=O)CN(C)C(=O)[C@H](Cc2c[nH]c3ccccc23)NC(=O)[C@H](CC(=O)O)NC(=O)[C@H](CCC(N)=O)NC(=O)[C@H](Cc2cn(C)c3ccccc23)NC(=O)[C@H](C(C)C)NC1=O [peptide 3, Sar-Ile-[Cys-Val-Trp(Me)-Gln-Asp-Trp-Sar-Ala-His-Arg-Cys]-mIle-NH2], the “ka: association rate” value (C3b; Table 1, N-terminal analogs) is reported as 1.9 ± 0.5 10^6/Ms, the Kd (C3b; Table 1, N-terminal analogs, read-out: KD: binding constant from SPR) is reported as 1.6 nM and the koff (C3b; Table 1, N-terminal analogs, read-out: kd: dissociation rate) is reported as 0.0029 ± 0.0003 s⁻¹. The half-life (in vivo [1]) was 5 h, the “Fraction of peptide co-eluted with C3” value (C3) was 88.0% and the “Fraction of peptide co-eluted with C3c” value (C3) was 4.5%. The “Fraction of peptide located in the flow-through” value (C3) was 7.5%, the Plasma half-life [2] was 10.1 h and the remaining at 120 h, 20 μM [3] was greater than 55%. For the same compound, the IC50 [4] was 82 ± 14 nM, the solubility at 5 min ([5]; Dulbecco's phosphate buffered saline, pH 7.4) was 6900 µg/mL (≈ 4.07 mM) and the “Hydrophobicity Retention Time” value [5] was 4.60 min. The solubility ([5]; water for injection) was greater than 50000 µg/mL.

For CC[C@H](C)[C@H](NC(=O)[C@H](N)Cc1ccc(O)cc1)C(=O)N[C@H]1CSSC[C@@H](C(=O)N(C)[C@H](C(N)=O)[C@@H](C)CC)NC(=O)[C@H](CCCNC(=N)N)NC(=O)[C@H](Cc2c[nH]cn2)NC(=O)[C@H](C)NC(=O)CN(C)C(=O)[C@H](Cc2c[nH]c3ccccc23)NC(=O)[C@H](CC(=O)O)NC(=O)[C@H](CCC(N)=O)NC(=O)[C@H](Cc2cn(C)c3ccccc23)NC(=O)[C@H](C(C)C)NC1=O [peptide 14, dTyr-Ile-[Cys-Val-Trp(Me)-Gln-Asp-Trp-Sar-Ala-His-Arg-Cys]-mIle-NH2], the “ka: association rate” value (C3b; Table 1, N-terminal analogs) was 2.8 ± 0.5 10^6/Ms, the “ka: association rate” value (C3b; Table 2, Cp40-based analogs) was 2.8 ± 0.6 10^6/Ms and the Cmax (in vivo [6]) was roughly 28 µM. For the same compound, the “Complement inhibitory activity versus analog concentration in plasma samples” value [7] was “closely track the concentration of analog”, the remaining at 120 h, 20 μM (in vitro) was greater than 55% and the “Time to reach the stated plasma concentration” value (in vivo [8]; po, 4 mg/kg) was “within one hour”. The level at time molar (in vivo [8]; po, 4 mg/kg) was roughly 0.023 µM, the Cmax (in vivo [8]; sc, 2 mg/kg) was roughly 12.5 µM and the “Time to peak plasma concentration” value (in vivo [8]; sc, 2 mg/kg) was 4 to 5 h. The “Complement inhibitory activity versus analog concentration in plasma samples” value [9] was “closely track the concentration of analog”, the “Solubility DPBS pH7.4” value [10] was 0.8 mg/mL and the IC50 [4] was 66 ± 8 nM. The “Time to peak plasma concentration” value (in vivo [11]) was 5 to 6 h, the Cmax (in vivo [11]; monkey, im) was roughly 10 µM and the “Hydrophobicity Retention Time” value [5] was 4.73 min. For the same compound, the solubility (physchem) was greater than 50000 µg/mL and the solubility at 5 min (physchem; pH 7.4) was 800 µg/mL (≈ 0.447 mM).

From patent publication US20210032291A1, “Compstatin Analogs With Improved Pharmacokinetic Properties” (The Trustees of the University of Pennsylvania, priority 2011, published 2021)
